Measurements: patent US20140005163A1 (NOVARTIS AG, priority 2010, published 2014)
≈ marks a conversion by molar mass, not a printed value.

Key:
[1] = Solubility in the organic solvents PEG400, propyleneglycol and ethanol; format: physicochemical; details: organic solvent or mixture
From the text: Compounds of the invention display particularly high solubilities in organic solvents. The compounds of the invention are thus particularly useful for topical administration, e.g. to a mammal such as a human, e.g. to the skin of said mammal. The compounds are thus useful for formulation into compositions suitable for topical administration. Compounds displaying high solubility thus provide an advantage for topical administration over compounds having a lower solubility.
The solubility of certain compounds was determined in the organic solvents PEG400, propyleneglycol and ethanol.

[2] = In vivo penetration into dermis of topically treated pigs (skin PK); details: pig dermis in vivo, topical 0.5% in PG/EtOH 7:3; mean ± SEM, n=8
Experimental: Small skin areas (4 cm^2) on the dorsolateral back of young domestic pigs were treated topically with 0.5% solutions at different time intervals (1-8 hrs) prior to drug level determination. Skin flaps with the treated sites in the centre were dissected and removed. The skin flaps were spread, and heated metal blocks placed on the test sites for 1 minute to induce separation of epidermis from the dermis. After removal of the loosened epidermal sheets, 1 mm thick dermal sheets were prepared from the treated, de-epidermized skin with a dermatome. From these sheets 6 mm punch samples (6 mm Ø) were collected and analysed for test compound concentration by LC/MS. The procedure described was done with careful avoidance of contamination of the dermal samples with compound attached superficially to the epidermis.
AUC means area under the curve, and is a well known term in clinical pharmacology. The AUC value describes the total uptake of the agent in a time interval.

[3] = In vitro skin penetration and permeation, pig skin in static Franz-type diffusion cells; format: in vitro ADME; details: 0.5% solution in propylene glycol, 48 hours exposure, mean ± SD of triplicate; for Skin concentration: after removal of stratum corneum; for Permeation rate: receiver
Experimental: The skin penetration/permeation properties of two representative compounds of the present invention were tested as follows:
The compounds were applied as 0.5% solutions in propylene glycol to pig skin mounted in static Franz-type diffusion cells. At the end of a 48 hours exposure time, drug concentrations were measured in the skin (after removal of stratum corneum) and in the receiver.

[4] = absolute ethanol, excipient Ethanol abs.
[5] = propylene glycol, excipient Propyleneglycol

| solubility [1, 4] [mg/mL] | solubility ([1]; excipient PEG400) [mg/mL] | solubility [1, 5] [mg/mL] | AUC (0-8 h) in dermis [2] [µg·h/g] | Skin concentration [3] [µg/g] | Permeation rate [3] [ng/cm^2/hr] | Structure (SMILES) |
| --- | --- | --- | --- | --- | --- | --- |
| 4.11 (≈ 9.31 mM) | > 20 | > 20 | – | – | – | Cc1nn(C(C)C)cc1-n1c(=O)n(C)c2cnc3ccc(-c4ccc(N(C)C)nc4)cc3c21 [Example 4.1, 8-(6-Dimethylamino-pyridin-3-yl)-1-(1-isopropyl-3-methyl-1H-pyrazol-4-yl)-3-methyl-1,3-dihydro-imidazo[4,5-c]quinolin-2-one] |
| > 22 | > 26 | > 24 | 3.7 ± 1.3 | 9.3 ± 6.2 | 0.5 ± 0.3 | Cc1nn(C)cc1-n1c(=O)n(C)c2cnc3ccc(-c4cncc(OC(C)C)c4)cc3c21 [Example 58.1, 1-(1,3-Dimethyl-1H-pyrazol-4-yl)-8-(5-isopropoxy-pyridin-3-yl)-3-methyl-1,3-dihydro-imidazo[4,5-c]quinolin-2-one] |
| > 21 | > 19 | > 20 | 2.8 ± 1.0 | 6.4 ± 3.5 | <0.4 | Cc1ncc(-c2ccc3ncc4c(c3c2)n(-c2cn(C)nc2C)c(=O)n4C)cc1OC(C)C [Example 84.1, 1-(1,3-Dimethyl-1H-pyrazol-4-yl)-8-(5-isopropoxy-6-methyl-pyridin-3-yl)-3-methyl-1,3-dihydro-imidazo[4,5-c]quinolin-2-one] |
| > 24 | > 23 | > 19 | – | – | – | COCc1ncc(-c2ccc3ncc4c(c3c2)n(-c2cn(C)nc2C)c(=O)n4C)cc1OC(C)C [Example 191.1, 1-(1,3-Dimethyl-1H-pyrazol-4-yl)-8-(5-isopropoxy-6-methoxymethyl-pyridin-3-yl)-3-methyl-1,3-dihydro-imidazo[4,5-c]quinolin-2-one] |
